Laboratory results taken from patent publication US9765067B2, “Thiophen-2-yl-pyridin-2-yl-1H-pyrazole-4-carboxylic acid derivatives and the use thereof as soluble guanylate cyclase activators” (Novartis AG, priority 2014, dated 2017).
pEC50: −log10 of the molar value.

Target: T1, soluble guanylate cyclase (human GUCYA3/GUCYB3) overexpressed in CHO cells (Homo sapiens, UniProt Q02108+Q02153)
T1 construct: expressed in transfected cells
T1 sequence (Q02108 1-690 partner): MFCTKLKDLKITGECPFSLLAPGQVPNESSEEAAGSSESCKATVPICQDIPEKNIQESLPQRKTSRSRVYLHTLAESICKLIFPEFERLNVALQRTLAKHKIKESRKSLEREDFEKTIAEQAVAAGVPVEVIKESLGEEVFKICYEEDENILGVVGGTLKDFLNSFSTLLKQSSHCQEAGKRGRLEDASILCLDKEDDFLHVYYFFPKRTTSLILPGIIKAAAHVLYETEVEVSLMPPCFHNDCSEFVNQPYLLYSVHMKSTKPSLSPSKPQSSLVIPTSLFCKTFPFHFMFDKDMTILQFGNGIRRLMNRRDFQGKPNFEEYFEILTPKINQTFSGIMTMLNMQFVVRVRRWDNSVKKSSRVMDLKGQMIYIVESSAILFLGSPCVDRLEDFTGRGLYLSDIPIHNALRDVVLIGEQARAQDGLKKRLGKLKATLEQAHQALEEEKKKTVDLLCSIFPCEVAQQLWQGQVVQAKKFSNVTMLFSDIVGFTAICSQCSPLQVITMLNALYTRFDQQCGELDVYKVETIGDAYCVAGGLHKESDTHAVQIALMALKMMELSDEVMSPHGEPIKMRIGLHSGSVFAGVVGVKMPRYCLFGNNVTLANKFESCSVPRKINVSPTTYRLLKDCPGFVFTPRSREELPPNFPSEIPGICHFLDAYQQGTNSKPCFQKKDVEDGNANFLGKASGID
T1 sequence (Q02153 1-619): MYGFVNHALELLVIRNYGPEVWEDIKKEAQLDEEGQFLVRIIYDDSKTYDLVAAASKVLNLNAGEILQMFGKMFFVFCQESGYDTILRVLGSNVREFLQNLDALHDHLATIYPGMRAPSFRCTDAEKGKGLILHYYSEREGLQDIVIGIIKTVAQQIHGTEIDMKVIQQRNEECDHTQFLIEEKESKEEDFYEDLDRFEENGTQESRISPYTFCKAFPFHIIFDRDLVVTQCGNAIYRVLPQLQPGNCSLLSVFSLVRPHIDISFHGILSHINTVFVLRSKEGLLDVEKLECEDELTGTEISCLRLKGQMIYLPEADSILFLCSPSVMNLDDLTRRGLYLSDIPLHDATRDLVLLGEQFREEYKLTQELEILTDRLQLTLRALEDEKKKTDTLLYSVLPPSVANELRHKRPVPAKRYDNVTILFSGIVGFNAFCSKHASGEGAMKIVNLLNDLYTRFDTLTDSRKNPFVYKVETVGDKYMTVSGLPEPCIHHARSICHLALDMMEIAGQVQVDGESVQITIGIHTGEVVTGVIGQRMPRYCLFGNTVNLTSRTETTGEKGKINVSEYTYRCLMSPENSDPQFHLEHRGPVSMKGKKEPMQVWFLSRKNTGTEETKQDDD
Experiment: CHO cellular assay (cGMP production, HTRF)
Format: cell-based
Settings: CHO K1 clone 8E10 overexpressing human sGC, Cisbio HTRF, 1 h room temperature, 1 mM IBMX, 20 uM ODQ, minimum quantification limit 0.5 nM
Source text: Chinese hamster ovary (CHO) cells overexpressing soluble guanylate cyclase were generated to test the effect of sGC activators in a cellular context. Human cDNAs for GUCYA3 (RefSeq: NM_000856.3) and GUCYB3 (RefSeq: NM_000857.1) were amplified by PCR from a HUVEC (Human Umbilical Vein Endothelial Cells) cDNA library and cloned into mammalian expression vectors. CHO K1 cells (ATCC CCL-61) were transfected using Lipofectamine 2000 following manufacturer's instructions and stably expressing clones were identified by antibiotic selection. CHO GUCY clone 8E10 was used for subsequent experiments.
Cells were seeded at a density of 3000 cells/well in white 384-well proxyplates (Perkin Elmer) and incubated overnight, then the medium was removed and cells were washed with assay buffer (HBSS, 0.1% BSA, 1 mM IBMX, 20 uM ODQ). sGC activators were serially diluted in DMSO, then diluted in assay buffer prior to adding to cells (10 ul/well, final DMSO concentration 0.5%). Cells were incubated with compounds for 1 h room temperature, then assayed for cGMP production using Cisbio cGMP HTRF kit (62GM2PEC) according to manufacturer's instructions.
The EC50s are calculated based on the amount of cGMP interpolated from the standard curve, using a 4-parameter sigmoidal dose-response.

**Q.** How did the pEC50 turn out when CCc1c(C)sc(-c2cccc(-n3ncc(C(=O)O)c3C(F)(F)F)n2)c1COc1ccc(C2CCN(CC(F)(F)F)CC2)cc1C [Example 6-18, 1-(6-(4-Ethyl-5-methyl-3-((2-methyl-4-(1-(2,2,2-trifluoroethyl)piperidin-4-yl)phenoxy)methyl)thiophen-2-yl)pyridin-2-yl)-5-(trifluoromethyl)-1H-pyrazole-4-carboxylic acid] was run?
**A.** 8.62

**Q.** How did the pEC50 turn out when O=C(O)c1cnn(-c2cccc(-c3sccc3COc3ccc(C4CCN(C(=O)C5CC5)CC4)cn3)n2)c1C(F)(F)F [Example 6-19, 1-(6-(3-(((5-(1-(Cyclopropanecarbonyl)piperidin-4-yl)pyridin-2-yl)oxy)methyl)thiophen-2-yl)pyridin-2-yl)-5-(trifluoromethyl)-1H-pyrazole-4-carboxylic acid] was run?
**A.** 8.70

**Q.** With CCC(=O)N1CCC(c2ccc(OCc3ccsc3-c3cccc(-n4ncc(C(=O)O)c4C(F)(F)F)n3)c(Cl)c2)CC1 [Example 7, 1-(6-(3-((2-Chloro-4-(1-propionylpiperidin-4-yl)phenoxy)methyl)thiophen-2-yl)pyridin-2-yl)-5-(trifluoromethyl)-1H-pyrazole-4-carboxylic acid] as the molecule, how does the pEC50 read?
**A.** ≥ 9.30

**Q.** How did the pEC50 turn out when O=C(O)c1cnn(-c2cccc(-c3sccc3COc3ccc(C4CCN(C(=O)C5CC5)CC4)cc3Cl)n2)c1C(F)(F)F [Example 8, 1-(6-(3-((2-Chloro-4-(1-(cyclopropanecarbonyl)piperidin-4-yl)phenoxy)methyl)thiophen-2-yl)pyridin-2-yl)-5-(trifluoromethyl)-1H-pyrazole-4-carboxylic acid] was run?
**A.** ≥ 9.30

**Q.** With Cc1cc(C2CCN(C(=O)C3CC3)CC2)ccc1OCc1ccsc1-c1cccc(-n2ncc(C(=O)O)c2C)n1 [Example 9, 1-(6-(3-((4-(1-(Cyclopropanecarbonyl)piperidin-4-yl)-2-methylphenoxy)methyl)thiophen-2-yl)pyridin-2-yl)-5-methyl-1H-pyrazole-4-carboxylic acid] as the molecule, how does the pEC50 read?
**A.** ≥ 9.30

**Q.** With CCc1cc(OCc2ccsc2-c2cccc(-n3ncc(C(=O)O)c3C)n2)ccc1C1CCN(C(=O)C2CC2)CC1 [Example 10-1, 1-(6-(3-((4-(1-(Cyclopropanecarbonyl)piperidin-4-yl)-3-ethylphenoxy)methyl)thiophen-2-yl)pyridin-2-yl)-5-methyl-1H-pyrazole-4-carboxylic acid] as the molecule, how does the pEC50 read?
**A.** ≥ 9.30

**Q.** CCc1cc(OCc2ccsc2-c2cccc(-n3ncc(C(=O)O)c3CC)n2)ccc1C1CCN(C(=O)C2CC2)CC1 [Example 10-2, 1-(6-(3-((4-(1-(Cyclopropanecarbonyl)piperidin-4-yl)-3-ethylphenoxy)methyl)thiophen-2-yl)pyridin-2-yl)-5-ethyl-1H-pyrazole-4-carboxylic acid] was tested. Which pEC50 did it give?
**A.** ≥ 9.30

**Q.** How did the pEC50 turn out when Cc1cc(COc2ccc(C3CCN(C(=O)C4CC4)CC3)cc2C)c(-c2cccc(-n3ncc(C(=O)O)c3C)n2)s1 [Example 10-3, 1-(6-(3-((4-(1-(Cyclopropanecarbonyl)piperidin-4-yl)-2-methylphenoxy)methyl)-5-methylthiophen-2-yl)pyridin-2-yl)-5-methyl-1H-pyrazole-4-carboxylic acid] was run?
**A.** ≥ 9.30

**Q.** With CCc1cc(OCc2cc(C)sc2-c2cccc(-n3ncc(C(=O)O)c3C)n2)ccc1C1CCN(C(=O)C2CC2)CC1 [Example 10-4, 1-(6-(3-((4-(1-(Cyclopropanecarbonyl)piperidin-4-yl)-3-ethylphenoxy)methyl)-5-methylthiophen-2-yl)pyridin-2-yl)-5-methyl-1H-pyrazole-4-carboxylic acid] as the molecule, how does the pEC50 read?
**A.** ≥ 9.30

**Q.** With CCc1cc(OCc2c(C)csc2-c2cccc(-n3ncc(C(=O)O)c3C(F)(F)F)n2)ccc1C1CCN(C(=O)C2CC2)CC1 [Example 10-5, 1-(6-(3-((4-(1-(Cyclopropanecarbonyl)piperidin-4-yl)-3-ethylphenoxy)methyl)-4-methylthiophen-2-yl)pyridin-2-yl)-5-(trifluoromethyl)-1H-pyrazole-4-carboxylic acid] as the molecule, how does the pEC50 read?
**A.** ≥ 9.30

**Q.** With CCc1c(C(=O)O)cnn1-c1cccc(-c2sc(C)c(C)c2COc2ccc(C3CCN(C(=O)C4CC4)CC3)cc2C)n1 [Example 10-6, 1-(6-(3-((4-(1-(Cyclopropanecarbonyl)piperidin-4-yl)-2-methylphenoxy)methyl)-4,5-dimethylthiophen-2-yl)pyridin-2-yl)-5-ethyl-1H-pyrazole-4-carboxylic acid] as the molecule, how does the pEC50 read?
**A.** ≥ 9.30

**Q.** With Cc1c(OCc2ccsc2-c2cccc(-n3ncc(C(=O)O)c3C(F)(F)F)n2)ccc2c1CCN(Cc1ccccn1)C2 [Example 10-7, 1-(6-(3-(((5-Methyl-2-(pyridin-2-ylmethyl)-1,2,3,4-tetrahydroisoquinolin-6-yl)oxy)methyl)thiophen-2-yl)pyridin-2-yl)-5-(trifluoromethyl)-1H-pyrazole-4-carboxylic acid] as the molecule, how does the pEC50 read?
**A.** 7.43

**Q.** With Cc1cc(C2CCN(C(=O)C3CC3)CC2)ccc1OC(C)c1ccsc1-c1cccc(-n2ncc(C(=O)O)c2C(F)(F)F)c1 (stereo not drawn) [Example 10-8, 1-(3-(3-(1-(4-(1-(Cyclopropanecarbonyl)piperidin-4-yl)-2-methylphenoxy)ethyl)thiophen-2-yl)phenyl)-5-(trifluoromethyl)-1H-pyrazole-4-carboxylic acid] as the molecule, how does the pEC50 read?
**A.** 7.82

**Q.** How did the pEC50 turn out when Cc1cc(C2CCN(CC(F)(F)F)CC2)ccc1OCc1c(C)csc1-c1cccc(-n2ncc(C(=O)O)c2C(F)(F)F)n1 [Example 10-9, 1-(6-(4-methyl-3-((2-methyl-4-(1-(2,2,2-trifluoroethyl)piperidin-4-yl)phenoxy)methyl)thiophen-2-yl)pyridin-2-yl)-5-(trifluoromethyl)-1H-pyrazole-4-carboxylic acid] was run?
**A.** 7.24

**Q.** With Cc1cc(C2CCN(C(=O)CC3CC3)CC2)ccc1OCc1ccsc1-c1cccc(-n2ncc(C(=O)O)c2C(F)(F)F)n1 [Example 11, 1-(6-(3-((4-(1-(2-Cyclopropylacetyl)piperidin-4-yl)-2-methylphenoxy)methyl)thiophen-2-yl)pyridin-2-yl)-5-(trifluoromethyl)-1H-pyrazole-4-carboxylic acid] as the molecule, how does the pEC50 read?
**A.** 8.70

**Q.** With Cc1cc(C2CCN(C(=O)C3CCC3)CC2)ccc1OCc1ccsc1-c1cccc(-n2ncc(C(=O)O)c2C(F)(F)F)n1 [Example 12-1, 1-(6-(3-((4-(1-(Cyclobutanecarbonyl)piperidin-4-yl)-2-methylphenoxy)methyl)thiophen-2-yl)pyridin-2-yl)-5-(trifluoromethyl)-1H-pyrazole-4-carboxylic acid] as the molecule, how does the pEC50 read?
**A.** ≥ 9.30

**Q.** Cc1cc(C2CCN(C(=O)C3CC3)CC2)ccc1OCc1ccsc1-c1cccc(-n2ncc(C(=O)O)c2C(F)(F)F)n1 [Example 12-2, 1-(6-(3-((4-(1-(Cyclopropanecarbonyl)piperidin-4-yl)-2-methylphenoxy)methyl)thiophen-2-yl)pyridin-2-yl)-5-(trifluoromethyl)-1H-pyrazole-4-carboxylic acid] was tested. Which pEC50 did it give?
**A.** 8.35

**Q.** With CCc1cc(OCc2cc(C)sc2-c2cccc(-n3ncc(C(=O)O)c3C(F)(F)F)n2)ccc1C1CCN(C(=O)CC2CC2)CC1 [Example 12-4, 1-(6-(3-((4-(1-(2-Cyclopropylacetyl)piperidin-4-yl)-3-ethylphenoxy)methyl)-5-methylthiophen-2-yl)pyridin-2-yl)-5-(trifluoromethyl)-1H-pyrazole-4-carboxylic acid] as the molecule, how does the pEC50 read?
**A.** ≥ 9.30
